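At the GI50, growth is halved. Definition used: TGI = concentration required for complete inhibition of growth.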
Assays:
Assay in all cases: growth of human tumour cells (NCI), 384-well format
786-0 renal = test system: 786-0 renal
A498 renal = test system: A498 renal
A549 NSCLC = test system: A549 NSCLC
ACHN renal = test system: ACHN renal
BT-549 breast = test system: BT-549 breast
CAKI-1 renal = test system: CAKI-1 renal
CCRF-CEM leukemia = test system: CCRF-CEM leukemia
COLO 205 colon = test system: COLO 205 colon
DU-145 prostate = test system: DU-145 prostate
EKVX NSCLC = test system: EKVX NSCLC
HCC-2998 colon = test system: HCC-2998 colon
HCT-116 colon = test system: HCT-116 colon
HCT-15 colon = test system: HCT-15 colon
HL-60(TB) leukemia = test system: HL-60(TB) leukemia
HOP-62 NSCLC = test system: HOP-62 NSCLC
HOP-92 NSCLC = test system: HOP-92 NSCLC
HS 578T breast = test system: HS 578T breast
HT29 colon = test system: HT29 colon
IGROV1 ovarian = test system: IGROV1 ovarian
K-562 leukemia = test system: K-562 leukemia
KM12 colon = test system: KM12 colon
LOX IMVI melanoma = test system: LOX IMVI melanoma
M14 melanoma = test system: M14 melanoma
MALME-3M melanoma = test system: MALME-3M melanoma
MCF7 breast = test system: MCF7 breast
MDA-MB-231 breast = test system: MDA-MB-231 breast
MDA-MB-435 melanoma = test system: MDA-MB-435 melanoma
MDA-MB-468 breast = test system: MDA-MB-468 breast
MOLT-4 leukemia = test system: MOLT-4 leukemia
NCI-H226 lung = test system: NCI-H226 lung
NCI-H23 lung = test system: NCI-H23 lung
NCI-H322M lung = test system: NCI-H322M lung
NCI-H460 NSCLC = test system: NCI-H460 NSCLC
NCI-H522 lung = test system: NCI-H522 lung
NCI/ADR-RES ovarian = test system: NCI/ADR-RES ovarian
OVCAR-3 ovarian = test system: OVCAR-3 ovarian
OVCAR-4 ovarian = test system: OVCAR-4 ovarian
OVCAR-5 ovarian = test system: OVCAR-5 ovarian
OVCAR-8 ovarian = test system: OVCAR-8 ovarian
PC-3 prostate = test system: PC-3 prostate
RPMI-8226 leukemia = test system: RPMI-8226 leukemia
RXF 393 renal = test system: RXF 393 renal
SF-268 CNS = test system: SF-268 CNS
SF-295 CNS = test system: SF-295 CNS
SF-539 CNS = test system: SF-539 CNS
SK-MEL-2 melanoma = test system: SK-MEL-2 melanoma
SK-MEL-28 melanoma = test system: SK-MEL-28 melanoma
SK-MEL-5 melanoma = test system: SK-MEL-5 melanoma
SK-OV-3 ovarian = test system: SK-OV-3 ovarian
SN12C renal = test system: SN12C renal
SNB-19 CNS = test system: SNB-19 CNS
SW-620 colon = test system: SW-620 colon
T-47D breast = test system: T-47D breast
TK-10 renal = test system: TK-10 renal
U251 glioblastoma = test system: U251 glioblastoma
UACC-257 melanoma = test system: UACC-257 melanoma
UACC-62 melanoma = test system: UACC-62 melanoma
UO-31 renal = test system: UO-31 renal

Cc1noc(C)c1-c1cnc2c(-c3ccc(C(=O)O)cc3)cn([C@@H](C)c3ccccn3)c2c1
GI50 ([…]-0 renal): 147 nM
TGI (786-0 renal): 9250 nM
GI50 (A498 renal): 283 nM
TGI (A498 renal): 2830 nM
GI50 (A549 NSCLC): 755 nM
TGI (A549 NSCLC): > 100000 nM
GI50 (ACHN renal): 627 nM
TGI (ACHN renal): 14900 nM
GI50 (BT-549 breast): 60.1 nM
TGI (BT-549 breast): 761 nM
TGI (CAKI-1 renal): 3460 nM
GI50 (CCRF-CEM leukemia): 75.8 nM
TGI (CCRF-CEM leukemia): 2790 nM
GI50 (COLO 205 colon): 418 nM
TGI (COLO 205 colon): 6010 nM
GI50 (DU-145 prostate): 2400 nM
TGI (DU-145 prostate): > 100000 nM
GI50 (EKVX NSCLC): 2950 nM
TGI (EKVX NSCLC): > 100000 nM
GI50 (HCC-2998 colon): 117 nM
TGI (HCC-2998 colon): 1050 nM
GI50 (HCT-116 colon): 552 nM
TGI (HCT-116 colon): 23100 nM
GI50 (HCT-15 colon): 205 nM
TGI (HCT-15 colon): 10800 nM
GI50 (HL-60(TB) leukemia): 16.1 nM
TGI (HL-60(TB) leukemia): 142 nM
GI50 (HOP-62 NSCLC): 228 nM
TGI (HOP-62 NSCLC): 9580 nM
GI50 (HOP-92 NSCLC): 188 nM
TGI (HOP-92 NSCLC): 39400 nM
GI50 (HS 578T breast): 51.4 nM
TGI (HS 578T breast): 1280 nM
GI50 (HT29 colon): 301 nM
TGI (HT29 colon): > 100000 nM
GI50 (IGROV1 ovarian): 78.7 nM
TGI (IGROV1 ovarian): 1980 nM
GI50 (K-562 leukemia): 173 nM
TGI (K-562 leukemia): > 100000 nM
GI50 (KM12 colon): 579 nM
TGI (KM12 colon): 19300 nM
GI50 (LOX IMVI melanoma): 144 nM
TGI (LOX IMVI melanoma): 381 nM
GI50 (M14 melanoma): 209 nM
TGI (M14 melanoma): 51900 nM
TGI (MALME-3M melanoma): 1730 nM
GI50 (MCF7 breast): 15.9 nM
TGI (MCF7 breast): 3130 nM
GI50 (MDA-MB-231 breast): 123 nM
TGI (MDA-MB-231 breast): 23800 nM
GI50 (MDA-MB-435 melanoma): 805 nM
TGI (MDA-MB-435 melanoma): > 100000 nM
GI50 (MDA-MB-468 breast): 72.1 nM
TGI (MDA-MB-468 breast): 919 nM
GI50 (MOLT-4 leukemia): 103 nM
TGI (MOLT-4 leukemia): 1470 nM
GI50 (NCI-H226 lung): 406 nM
TGI (NCI-H226 lung): 7350 nM
GI50 (NCI-H23 lung): 366 nM
TGI (NCI-H23 lung): 6370 nM
GI50 (NCI-H322M lung): 619 nM
TGI (NCI-H322M lung): 58400 nM
GI50 (NCI-H460 NSCLC): 3170 nM
TGI (NCI-H460 NSCLC): > 100000 nM
GI50 (NCI-H522 lung): 15 nM
TGI (NCI-H522 lung): 391 nM
GI50 (NCI/ADR-RES ovarian): 1180 nM
TGI (NCI/ADR-RES ovarian): 17200 nM
GI50 (OVCAR-3 ovarian): 116 nM
TGI (OVCAR-3 ovarian): 10300 nM
GI50 (OVCAR-4 ovarian): 167 nM
TGI (OVCAR-4 ovarian): 739 nM
GI50 (OVCAR-5 ovarian): 525 nM
TGI (OVCAR-5 ovarian): 27400 nM
GI50 (OVCAR-8 ovarian): 234 nM
TGI (OVCAR-8 ovarian): 2390 nM
GI50 (PC-3 prostate): 467 nM
TGI (PC-3 prostate): > 100000 nM
GI50 (RPMI-8226 leukemia): 12 nM
TGI (RPMI-8226 leukemia): 152 nM
GI50 (RXF 393 renal): 254 nM
TGI (RXF 393 renal): 1290 nM
GI50 (SF-268 CNS): 1470 nM
TGI (SF-268 CNS): 27000 nM
GI50 (SF-295 CNS): 1460 nM
TGI (SF-295 CNS): 28900 nM
GI50 (SF-539 CNS): 292 nM
TGI (SF-539 CNS): 1680 nM
GI50 (SK-MEL-2 melanoma): 46.4 nM
TGI (SK-MEL-2 melanoma): 14000 nM
GI50 (SK-MEL-28 melanoma): 699 nM
TGI (SK-MEL-28 melanoma): > 100000 nM
GI50 (SK-MEL-5 melanoma): 61.6 nM
TGI (SK-MEL-5 melanoma): 3080 nM
GI50 (SK-OV-3 ovarian): 445 nM
TGI (SK-OV-3 ovarian): 9820 nM
GI50 (SN12C renal): 1040 nM
TGI (SN12C renal): > 100000 nM
GI50 (SNB-19 CNS): 554 nM
TGI (SNB-19 CNS): > 100000 nM
GI50 (SW-620 colon): 4750 nM
TGI (SW-620 colon): 73900 nM
GI50 (T-47D breast): 201 nM
TGI (T-47D breast): 3310 nM
GI50 (TK-10 renal): 34.3 nM
TGI (TK-10 renal): 989 nM
GI50 (U251 glioblastoma): 1770 nM
TGI (U251 glioblastoma): 30100 nM
GI50 (UACC-257 melanoma): 219 nM
TGI (UACC-257 melanoma): 9840 nM
GI50 (UACC-62 melanoma): 37.8 nM
TGI (UACC-62 melanoma): 1270 nM
GI50 (UO-31 renal): 323 nM
TGI (UO-31 renal): 13400 nM

— PubChem BioAssay (NCI)
